Common to all, as to format: in vivo, wild‐type C57BL/6J mice
The test system of data set [1] is wild‐type mice. As to the kind of experiment: BAT mass, body weight, tissue mass and morphology of mice after BAT injection of peptide. The note with it: GPCBi 5.5 mg kg^−1 orthotopically into BAT. Here is the method:
(§1) The mouse experiments were approved by the Institutional Animal Care and Use Committee of the Institute of Model Animals of Tongji Hospital, Huazhong University of Science and Technology, and were performed in compliance with all relevant ethical regulations (approval number: TJH‐202110044). Unless otherwise noted, the mice were housed in a pathogen‐free and climate‐controlled environment (22–25 °C, 40‐60% humidity) and were given free access to food and water on a 12 h light/dark cycle. Wild‐type C57BL/6J mice were obtained from Beijing Huafukang Bioscience Co., Ltd. (Beijing, China). Gabpa ^flox/flox , Adipoq^Cre , and Ucp1^Cre mice were purchased from Cyagen Biosciences, Inc. (Guangzhou, China). For GPCBi treatment, wild‐type mice were orthotopically injected GPCBi (FITC‐[…]; 5.5 mg kg^−1) or scramble peptide (FITC‐[…]; 5.5 mg kg^−1) into the BAT at room temperature for one week. […] For cold exposure, the mice were caged individually and exposed to a temperature of 10 or 4 °C. The mice were euthanized by CO2 inhalation. For studies with specific diets, five‐week‐old male Gabpα ^Adipo KI mice and their respective littermate control mice were fed a HFD (D12492, Research Diets; 60 kcal% fat, 20 kcal% carbohydrates, and 20 kcal% protein; Medicience Ltd., Jiangsu, China) at ambient temperature. The food was changed every week. Body weight was measured every week, and tissue weights were measured at the time of euthanasia.

Data set [2] has as its system wild‐type mice. The data set can be described thus: Lactate levels in BAT and serum. Conditions: GPCBi 5.5 mg kg^−1 in BAT, 23 °C for 7 days then 10 °C for 2 days. Here is the method: as §1, with “For studies with specific diets, five‐week‐old male Gabpα ^Adipo KI mice and their respective littermate control mice were fed a HFD (D12492, Research Diets; 60 kcal% fat, 20 kcal% carbohydrates, and 20 kcal% protein; Medicience Ltd., Jiangsu, China) at ambient temperature. The food was changed every week.” left out, “euthanasia. […]” for “euthanasia.”

The test system of data set [3] is wild‐type mice. The data set can be described thus: Fasting blood glucose. Conditions: GPCBi 5.5 mg kg^−1 orthotopically into BAT; n = 5 (Figure S4h). As to the method: as §1, with “For studies with specific diets, five‐week‐old male Gabpα ^Adipo KI mice and their respective littermate control mice were fed a HFD (D12492, Research Diets; 60 kcal% fat, 20 kcal% carbohydrates, and 20 kcal% protein; Medicience Ltd., Jiangsu, China) at ambient temperature. The food was changed every week.” left out

Structures are written as SMILES. Residues, ends and D or L forms follow the SMILES beside them. *: point of attachment. FITC = O=C1OC2(c3ccc(O)cc3Oc3cc(O)ccc32)c2ccc(NC(=S)*)cc21

Consider `CC[C@H](C)[C@H](NC(=O)[C@H](CCCNC(=N)N)NC(=O)[C@H](CS)NC(=O)[C@H](CC(N)=O)NC(=O)[C@H](CC(C)C)NC(=O)[C@H](CC(=O)O)NC(=O)[C@H](CS)NC(=O)[C@H](CCCNC(=N)N)NC(=O)[C@H](CC(=O)O)NC(=O)[C@H](Cc1ccc(O)cc1)NC(=O)[C@@H](NC(=O)[C@H](CC(C)C)NC(=O)[C@H](CCCCN)NC(=O)[C@H](CC(C)C)NC(=O)[C@H](CCCNC(=N)N)NC(=O)[C@@H](NC(=O)[C@@H](NC(=O)[C@H](CCCNC(=N)N)NC(=O)[C@H](CCCNC(=N)N)NC(=O)[C@H](CCCNC(=N)N)NC(=O)[C@H](CCCNC(=N)N)NC(=O)[C@H](CCCNC(=N)N)NC(=O)[C@H](CCC(N)=O)NC(=O)[C@H](CCCNC(=N)N)NC(=O)[C@H](CCCNC(=N)N)NC(=O)[C@H](CCCCN)NC(=O)[C@H](CCCCN)NC(=O)[C@H](CCCNC(=N)N)NC(=O)CNC(=O)[C@H](Cc1ccc(O)cc1)NC(=S)Nc1ccc2c(c1)C(=O)OC21c2ccc(O)cc2Oc2cc(O)ccc21)[C@@H](C)O)[C@@H](C)CC)[C@@H](C)CC)C(=O)N[C@@H](Cc1c[nH]cn1)C(=O)N[C@@H](CCCCN)C(=O)N[C@@H](CCCCN)C(=O)N[C@@H](CO)C(=O)N[C@@H](CCCNC(=N)N)C(=O)N[C@@H](CC(N)=O)C(=O)N[C@@H](CCCCN)C(=O)O` [GPCBi] ({FITC}-YGRKKRRQRRRRRTIRLKLIYDRCDLNCRIHKKSRNK-OH; N-terminus and C-terminus assumed), for which, in the data set on wild‐type mice [1] (one week (Figure S4f)), the BAT morphology entry is given as “morphological changes”. Besides, the “body weight or the morphology or tissue mass of IngWAT, EpiWAT, or the liver” value in the data set on wild‐type mice [1] (one week, n = 4 (Figure S4e-g)) is “no significant changes”. The BAT mass result with wild‐type mice [1] (room temperature, one week, versus scramble peptide, n = 4 (Figure S4g)) is “reduced BAT mass”. The “production of lactate in brown fat” value with wild‐type mice [2] (n = 3 (Figure 5c)) was “substantially suppressed”. Moreover, the “lactate in circulation (serum)” value with wild‐type mice [2] (n = 3 (Figure 5d)) is listed as “substantially suppressed”. The “fasting blood glucose levels” value in the data set on wild‐type mice [3] is “markedly increased”.

(Values after article PMC12884720, “Gabpα‐Pparγ Complex Determines Glycolytic Capacity and Lactic Acid Homeostasis in Brown Fat” (Advanced Science, 2025).)
